{"source": "paper PMC4822888", "about": "“Subtype-Selective Small Molecule Inhibitors Reveal a Fundamental Role for Nav1.7 in Nociceptor Electrogenesis, Axonal Conduction and Presynaptic Release” (PLoS ONE, 2016)", "key": {"Matrix metalloprotease 9": {"target": "Matrix metalloprotease 9 (Homo sapiens, UniProt P14780)", "sequence (P14780 94-707)": "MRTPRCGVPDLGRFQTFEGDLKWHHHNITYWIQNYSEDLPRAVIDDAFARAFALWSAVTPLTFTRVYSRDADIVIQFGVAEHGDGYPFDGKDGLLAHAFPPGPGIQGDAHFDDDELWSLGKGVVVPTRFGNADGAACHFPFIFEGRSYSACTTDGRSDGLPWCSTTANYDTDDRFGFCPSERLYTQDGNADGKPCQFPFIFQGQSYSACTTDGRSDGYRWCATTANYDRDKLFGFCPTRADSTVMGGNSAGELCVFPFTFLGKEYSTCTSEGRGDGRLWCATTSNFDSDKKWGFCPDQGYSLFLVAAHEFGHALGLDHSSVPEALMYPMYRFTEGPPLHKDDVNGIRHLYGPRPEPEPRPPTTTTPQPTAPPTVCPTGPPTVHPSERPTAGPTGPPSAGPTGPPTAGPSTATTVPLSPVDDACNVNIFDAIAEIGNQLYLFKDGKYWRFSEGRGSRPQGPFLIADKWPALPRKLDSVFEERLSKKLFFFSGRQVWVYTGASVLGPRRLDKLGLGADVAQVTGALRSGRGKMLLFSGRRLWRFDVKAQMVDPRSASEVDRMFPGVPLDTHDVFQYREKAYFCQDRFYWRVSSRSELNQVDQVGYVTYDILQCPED", "assay": "Off target activity panel", "type": "biochemical", "conditions": "read-out: Inhibition at test concentration (%)"}, "Adenosine A1 receptor": {"target": "Adenosine A1 receptor (Homo sapiens, UniProt P30542)", "sequence (P30542 whole entry)": "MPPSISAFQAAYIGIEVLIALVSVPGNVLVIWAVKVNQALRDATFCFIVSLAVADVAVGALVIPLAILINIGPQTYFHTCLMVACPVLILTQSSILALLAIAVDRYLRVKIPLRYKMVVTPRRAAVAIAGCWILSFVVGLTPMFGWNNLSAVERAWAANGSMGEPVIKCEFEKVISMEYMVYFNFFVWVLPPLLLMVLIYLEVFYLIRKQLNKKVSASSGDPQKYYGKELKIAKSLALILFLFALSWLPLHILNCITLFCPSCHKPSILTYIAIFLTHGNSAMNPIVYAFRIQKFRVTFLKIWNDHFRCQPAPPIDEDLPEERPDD", "assay": "Off target activity panel", "type": "binding", "conditions": "read-out: Inhibition at test concentration (%)"}, "[1]": {"test_system": "Nictotinic acetylcholine receptor", "assay": "Off target activity panel", "type": "binding", "conditions": "10 µM"}, "p38alpha kinase": {"target": "p38alpha kinase (Homo sapiens, UniProt Q16539)", "sequence (Q16539 whole entry)": "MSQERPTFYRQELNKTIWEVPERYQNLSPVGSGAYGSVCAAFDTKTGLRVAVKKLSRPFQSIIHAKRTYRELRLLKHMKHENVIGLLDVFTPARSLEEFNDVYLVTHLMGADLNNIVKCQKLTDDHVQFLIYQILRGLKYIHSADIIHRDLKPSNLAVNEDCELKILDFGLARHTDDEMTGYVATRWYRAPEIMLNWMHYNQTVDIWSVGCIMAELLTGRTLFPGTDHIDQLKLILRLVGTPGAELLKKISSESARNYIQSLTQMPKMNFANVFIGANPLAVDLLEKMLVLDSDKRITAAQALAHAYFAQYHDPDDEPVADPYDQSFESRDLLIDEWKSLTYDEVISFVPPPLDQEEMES", "assay": "Off target activity panel", "type": "biochemical", "conditions": "read-out: Inhibition at test concentration (%)"}, "[2]": {"test_system": "NMDA receptor (phencyclidine site)", "assay": "Off target activity panel", "type": "binding", "conditions": "10 µM"}, "[3]": {"test_system": "Cloride channel (GABA-gated)", "assay": "Off target activity panel", "type": "binding"}, "Dopamine D3 receptor": {"target": "Dopamine D3 receptor (Homo sapiens, UniProt P35462)", "sequence (P35462 whole entry)": "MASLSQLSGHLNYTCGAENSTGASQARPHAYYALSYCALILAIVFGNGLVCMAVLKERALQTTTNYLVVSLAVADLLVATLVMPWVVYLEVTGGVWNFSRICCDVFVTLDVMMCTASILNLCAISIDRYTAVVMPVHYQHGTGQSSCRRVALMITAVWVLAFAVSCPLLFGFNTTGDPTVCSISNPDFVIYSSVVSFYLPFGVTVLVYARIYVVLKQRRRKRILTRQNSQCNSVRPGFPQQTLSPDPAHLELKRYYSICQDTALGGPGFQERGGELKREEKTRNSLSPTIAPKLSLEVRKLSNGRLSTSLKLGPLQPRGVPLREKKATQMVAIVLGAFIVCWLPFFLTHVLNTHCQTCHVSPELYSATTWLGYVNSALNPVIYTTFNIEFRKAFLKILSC", "assay": "Off target activity panel", "type": "binding", "conditions": "read-out: Inhibition at test concentration (%)"}, "[4]": {"target": "Cholycystokinin 2 (CCKB) receptor (Homo sapiens, UniProt P32239)", "sequence (P32239 whole entry)": "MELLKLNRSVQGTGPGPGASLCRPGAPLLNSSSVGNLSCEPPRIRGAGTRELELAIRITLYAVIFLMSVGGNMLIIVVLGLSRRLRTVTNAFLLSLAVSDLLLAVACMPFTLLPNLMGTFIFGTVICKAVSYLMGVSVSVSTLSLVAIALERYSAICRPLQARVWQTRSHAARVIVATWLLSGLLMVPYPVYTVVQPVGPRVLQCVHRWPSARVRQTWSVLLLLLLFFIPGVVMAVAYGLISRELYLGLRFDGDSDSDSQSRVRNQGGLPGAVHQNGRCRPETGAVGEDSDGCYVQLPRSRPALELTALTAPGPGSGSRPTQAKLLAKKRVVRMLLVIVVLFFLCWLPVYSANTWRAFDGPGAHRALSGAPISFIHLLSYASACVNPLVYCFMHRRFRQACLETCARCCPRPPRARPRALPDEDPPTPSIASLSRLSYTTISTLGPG", "assay": "Off target activity panel", "type": "binding", "conditions": "read-out: Inhibition at test concentration (%)"}, "Serotonin 5-HT2A": {"target": "Serotonin 5-HT2A (Homo sapiens, UniProt P28223)", "sequence (P28223 whole entry)": "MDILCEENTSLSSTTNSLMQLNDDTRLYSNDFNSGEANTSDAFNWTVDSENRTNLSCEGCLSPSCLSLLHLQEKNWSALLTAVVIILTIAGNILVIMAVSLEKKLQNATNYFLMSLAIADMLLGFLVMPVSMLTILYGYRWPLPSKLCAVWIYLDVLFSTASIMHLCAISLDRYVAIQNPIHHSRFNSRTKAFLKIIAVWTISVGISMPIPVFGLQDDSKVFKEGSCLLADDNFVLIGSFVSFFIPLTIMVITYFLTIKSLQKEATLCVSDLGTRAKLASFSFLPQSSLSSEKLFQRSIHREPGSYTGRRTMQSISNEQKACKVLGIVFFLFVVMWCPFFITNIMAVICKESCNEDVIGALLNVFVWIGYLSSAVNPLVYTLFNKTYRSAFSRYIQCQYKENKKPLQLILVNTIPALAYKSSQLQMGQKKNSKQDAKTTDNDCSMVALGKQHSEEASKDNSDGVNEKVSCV", "assay": "Off target activity panel", "type": "binding", "conditions": "read-out: Inhibition at test concentration (%)"}, "Serotonin 5-HT2C": {"target": "Serotonin 5-HT2C (Homo sapiens, UniProt P28335)", "sequence (P28335 33-458)": "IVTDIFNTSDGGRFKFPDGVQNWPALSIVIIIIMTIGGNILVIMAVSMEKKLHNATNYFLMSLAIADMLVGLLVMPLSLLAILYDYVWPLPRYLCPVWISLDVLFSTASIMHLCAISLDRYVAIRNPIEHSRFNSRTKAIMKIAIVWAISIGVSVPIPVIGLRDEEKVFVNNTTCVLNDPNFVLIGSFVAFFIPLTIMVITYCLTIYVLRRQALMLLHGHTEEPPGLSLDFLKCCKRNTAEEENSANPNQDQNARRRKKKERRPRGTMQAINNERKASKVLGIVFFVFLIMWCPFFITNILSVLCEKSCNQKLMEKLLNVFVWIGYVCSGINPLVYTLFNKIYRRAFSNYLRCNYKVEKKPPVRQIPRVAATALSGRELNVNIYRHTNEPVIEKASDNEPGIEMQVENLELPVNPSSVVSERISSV", "assay": "Off target activity panel (second 5-HT2C line)", "type": "binding", "conditions": "read-out: Inhibition at test concentration (%)"}, "Histamine H3 receptor": {"target": "Histamine H3 receptor (Homo sapiens, UniProt Q9Y5N1)", "sequence (Q9Y5N1 whole entry)": "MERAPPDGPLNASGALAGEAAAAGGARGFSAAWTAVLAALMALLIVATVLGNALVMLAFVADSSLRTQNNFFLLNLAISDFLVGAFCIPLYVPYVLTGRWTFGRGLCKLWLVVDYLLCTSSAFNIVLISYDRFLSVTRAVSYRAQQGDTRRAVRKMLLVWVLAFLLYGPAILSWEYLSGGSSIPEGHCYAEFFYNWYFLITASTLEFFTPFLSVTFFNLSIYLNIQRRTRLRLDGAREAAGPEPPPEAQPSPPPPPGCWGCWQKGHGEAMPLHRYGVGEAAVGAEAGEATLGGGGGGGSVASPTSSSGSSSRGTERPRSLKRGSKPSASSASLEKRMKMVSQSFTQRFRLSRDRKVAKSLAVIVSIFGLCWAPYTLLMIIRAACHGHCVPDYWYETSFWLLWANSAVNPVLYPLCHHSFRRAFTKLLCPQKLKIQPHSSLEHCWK", "assay": "Off target activity panel", "type": "binding", "conditions": "read-out: Inhibition at test concentration (%)"}, "[5]": {"test_system": "Calcium channel L-type (dihydropyridine site)", "assay": "Off target activity panel", "type": "binding", "conditions": "10 µM"}}}
{"compound": "Nc1[nH]ncc1-c1cc(Cl)ccc1Oc1cc(F)c(S(=O)(=O)Nc2cscn2)cc1Cl", "note": "[PF-05089771, 4-[2-(5-amino-1H-pyrazol-4-yl)-4-chlorophenoxy]-5-chloro-2-fluoro-N-(1,3-thiazol-4-yl)benzenesulfonamide]", "values": [{"measurement": "inhibition at 10 µM", "setting": "Matrix metalloprotease 9", "value": -3, "unit": "%"}, {"measurement": "inhibition at 10 µM", "setting": "Adenosine A1 receptor", "value": 15, "unit": "%"}, {"measurement": "Inhibition at test concentration (%)", "setting": "[1]", "value": -7, "unit": "%"}, {"measurement": "inhibition at 10 µM", "setting": "p38alpha kinase", "value": 8, "unit": "%"}, {"measurement": "Inhibition at test concentration (%)", "setting": "[2]", "value": -3, "unit": "%"}, {"measurement": "Inhibition at test concentration (%)", "setting": "[3]; 10 µM", "value": 54, "unit": "%"}, {"measurement": "Ki", "setting": "[3]; Cloride channel (GABA-gated)", "value": 8.3, "unit": "µM"}, {"measurement": "inhibition at 10 µM", "setting": "Dopamine D3 receptor", "value": 16, "unit": "%"}, {"measurement": "inhibition at 10 µM", "setting": "[4]", "value": 13, "unit": "%"}, {"measurement": "inhibition at 10 µM", "setting": "Serotonin 5-HT2A", "value": -2, "unit": "%"}, {"measurement": "inhibition at 10 µM", "setting": "Serotonin 5-HT2C", "value": 4, "unit": "%"}, {"measurement": "inhibition at 10 µM", "setting": "Histamine H3 receptor", "value": 10, "unit": "%"}, {"measurement": "Inhibition at test concentration (%)", "setting": "[5]", "value": 4, "unit": "%"}]}
